Reference: US8198273B2, “Compounds and methods for kinase modulation, and indications therefor” (Plexxikon Inc., priority 2009, dated 2012)

Key:
A-Raf = target: T1, A-Raf (Homo sapiens, UniProt P10398); assay: A-Raf biochemical kinase inhibition (AlphaScreen, biotin-MEK1 substrate); conditions: 100 μM ATP
T1 sequence (P10398 1-606): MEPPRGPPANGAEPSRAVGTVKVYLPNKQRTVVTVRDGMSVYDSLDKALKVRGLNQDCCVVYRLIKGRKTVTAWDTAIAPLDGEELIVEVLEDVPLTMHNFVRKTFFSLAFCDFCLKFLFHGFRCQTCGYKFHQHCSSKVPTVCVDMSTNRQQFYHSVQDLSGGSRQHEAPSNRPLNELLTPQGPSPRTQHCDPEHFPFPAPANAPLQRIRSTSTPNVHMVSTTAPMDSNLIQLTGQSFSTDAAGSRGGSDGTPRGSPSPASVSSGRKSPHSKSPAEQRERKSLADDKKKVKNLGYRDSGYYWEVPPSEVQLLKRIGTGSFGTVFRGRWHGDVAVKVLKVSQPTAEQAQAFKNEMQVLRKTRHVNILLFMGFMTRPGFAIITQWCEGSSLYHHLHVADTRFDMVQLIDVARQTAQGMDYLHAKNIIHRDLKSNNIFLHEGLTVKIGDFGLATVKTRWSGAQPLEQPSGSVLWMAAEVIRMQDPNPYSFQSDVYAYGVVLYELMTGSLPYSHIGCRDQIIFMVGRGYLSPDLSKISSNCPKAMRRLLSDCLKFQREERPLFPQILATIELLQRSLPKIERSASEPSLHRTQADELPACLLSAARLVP
Procedure: Compounds to be tested are diluted in dimethyl sulfoxide to a concentration of 0.1 mM. These are serially diluted 15 μL into 30 μL of dimethyl sulfoxide seven times in 96 well plates for a total of 8 dilution points, and for each dilution point 1 μL is added to a well of an assay plate. […] The reaction is started with addition of 10 μL of 200 μM ATP (i.e. final 100 μM ATP). […] The plates are incubated for 3 hours at room temperature and read on Envision reader (Perkin Elmer). […] The signal vs. compound concentration is used to determine the IC50.

[1] = system: A375 melanoma cells (B-Raf V600E); assay: A375 cell growth inhibition (ATPlite); format: cell-based; conditions: Homo sapiens, A-375, 72 h; A375, 3 days incubation
Summary of the method: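 Cells plated overnight, then exposed 3 days at 37° C to 8-point 1:3 compound dilutions topping at 10 μM final. Viability read as ATPlite luminescence, proportional to cell number; IC50 from luminescence versus concentration.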

CYP3A4(BQ) = CYP3A4(BQ) (Homo sapiens, UniProt P08684); assay: CYP3A4(BQ) inhibition (fluorescent substrate); format: in vitro ADME; conditions: read-out: Cyp IC50 3A4(BQ)
Summary of the method: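 Inhibition was followed as loss of fluorescent metabolite from a known substrate, with compound in co-factor mix as a 10-point 1:1 serial dilution (100 mM DMSO stock).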

Chain of CYP3A4(BQ) (P08684 whole entry): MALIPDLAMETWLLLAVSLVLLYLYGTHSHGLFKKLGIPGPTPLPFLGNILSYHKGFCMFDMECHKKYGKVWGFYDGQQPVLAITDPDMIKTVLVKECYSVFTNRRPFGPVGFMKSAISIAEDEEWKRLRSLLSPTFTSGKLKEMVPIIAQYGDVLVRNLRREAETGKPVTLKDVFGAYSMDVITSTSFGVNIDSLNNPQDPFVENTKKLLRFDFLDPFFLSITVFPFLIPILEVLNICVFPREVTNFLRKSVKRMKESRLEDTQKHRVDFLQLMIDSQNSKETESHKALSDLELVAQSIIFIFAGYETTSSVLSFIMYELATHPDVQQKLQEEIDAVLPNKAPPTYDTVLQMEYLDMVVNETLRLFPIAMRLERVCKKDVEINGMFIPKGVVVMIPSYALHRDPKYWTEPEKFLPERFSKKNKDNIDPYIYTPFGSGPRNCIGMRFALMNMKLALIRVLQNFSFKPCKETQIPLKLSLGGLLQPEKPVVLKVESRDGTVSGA

Structure (SMILES)	IC50 (A-Raf)	IC50 [1]	IC50 (CYP3A4(BQ))
CCCS(=O)(=O)Nc1ccc(F)c(C(=O)c2c[nH]c3ncc(-c4ccc(NS(C)(=O)=O)cc4)cc23)c1F [P-2165, Propane-1-sulfonic acid {2,4-difluoro-3-[5-(4-methanesulfonylamino-phenyl)-1H-pyrrolo[2,3-b]pyridine-3-carbonyl]-phenyl}-amide]	< 10 nM	< 1000 nM	> 10000 nM
N#Cc1ccnc2[nH]cc(C(=O)c3c(F)ccc(NS(=O)(=O)c4cc(F)ccc4F)c3F)c12 [P-2036, N-[3-(4-Cyano-1H-pyrrolo[2,3-b]pyridine-3-carbonyl)-2,4-difluoro-phenyl]-2,5-difluoro-benzenesulfonamide]	< 10 nM	< 5000 nM	> 10000 nM
CCCS(=O)(=O)Nc1ccc(F)c(C(=O)c2c[nH]c3ncc(-c4ccc(OCCCN5CCCC5)nc4)cc23)c1F [P-2235, Propane-1-sulfonic acid (2,4-difluoro-3-{5-[6-(3-pyrrolidin-1-yl-propoxy)-pyridin-3-yl]-1H-pyrrolo[2,3-b]pyridine-3-carbonyl}-phenyl)-amide]	< 10 nM	< 100 nM	> 10000 nM
CCCS(=O)(=O)Nc1ccc(F)c(C(=O)c2c[nH]c3ncc(C#CCOC)cc23)c1F [P-2239, Propane-1-sulfonic acid {2,4-difluoro-3-[5-(3-methoxy-prop-1-ynyl)-1H-pyrrolo[2,3-b]pyridine-3-carbonyl]-phenyl}-amide]	< 10 nM	< 1000 nM	5000 to 10000 nM
N#Cc1ccnc2[nH]cc(C(=O)c3c(F)ccc(NS(=O)(=O)c4cccnc4)c3F)c12 [P-2077, Pyridine-3-sulfonic acid [3-(4-cyano-1H-pyrrolo[2,3-b]pyridine-3-carbonyl)-2,4-difluoro-phenyl]-amide]	< 10 nM	< 10000 nM	5000 to 10000 nM
N#Cc1ccnc2[nH]cc(C(=O)c3c(F)ccc(NS(=O)(=O)c4ccccc4F)c3F)c12 [P-2020, N-[3-(4-Cyano-1H-pyrrolo[2,3-b]pyridine-3-carbonyl)-2,4-difluoro-phenyl]-2-fluoro-benzenesulfonamide]	< 10 nM	< 5000 nM	> 10000 nM
CCCc1ccc(-c2cnc3[nH]cc(C(=O)c4c(F)ccc(NS(=O)(=O)CCC)c4F)c3c2)cn1 [P-2224, Propane-1-sulfonic acid {2,4-difluoro-3-[5-(6-propyl-pyridin-3-yl)-1H-pyrrolo[2,3-b]pyridine-3-carbonyl]-phenyl}-amide]	< 10 nM	< 1000 nM	> 10000 nM
O=C(c1c(F)ccc(NS(=O)(=O)c2cc(F)ccc2F)c1F)c1c[nH]c2nccc(Cl)c12 [P-2018, N-[3-(4-Chloro-1H-pyrrolo[2,3-b]pyridine-3-carbonyl)-2,4-difluoro-phenyl]-2,5-difluoro-benzenesulfonamide]	< 10 nM	< 1000 nM	> 10000 nM
CCCS(=O)(=O)Nc1ccc(F)c(C(=O)c2c[nH]c3ncc(-c4ccc(OCCN5CCCC5)nc4)cc23)c1F [P-2233, Propane-1-sulfonic acid (2,4-difluoro-3-{5-[6-(2-pyrrolidin-1-yl-ethoxy)-pyridin-3-yl]-1H-pyrrolo[2,3-b]pyridine-3-carbonyl}-phenyl)-amide]	< 10 nM	< 100 nM	> 10000 nM
COc1cnc2[nH]cc(C(=O)c3c(F)ccc(NS(=O)(=O)c4ccccc4F)c3F)c2c1 [P-2009, N-[2,4-Difluoro-3-(5-methoxy-1H-pyrrolo[2,3-b]pyridine-3-carbonyl)-phenyl]-2-fluoro-benzenesulfonamide]	< 10 nM	< 1000 nM	> 10000 nM
CCCS(=O)(=O)Nc1cccc(C(=O)c2c[nH]c3ncc(-c4cnc(OC)nc4)cc23)c1F [P-2407, Propane-1-sulfonic acid {2-fluoro-3-[5-(2-methoxy-pyrimidin-5-yl)-1H-pyrrolo[2,3-b]pyridine-3-carbonyl]-phenyl}-amide]	< 10 nM	< 1000 nM	> 10000 nM
O=C(c1c(F)ccc(NS(=O)(=O)c2cc(F)ccc2F)c1F)c1c[nH]c2ncc(Cl)cc12 [P-2002, N-[3-(5-Chloro-1H-pyrrolo[2,3-b]pyridine-3-carbonyl)-2,4-difluoro-phenyl]-2,5-difluoro-benzenesulfonamide]	< 10 nM	< 1000 nM	> 10000 nM
O=C(c1c(F)ccc(NS(=O)(=O)c2ccccc2F)c1F)c1c[nH]c2nccc(Cl)c12 [P-2017, N-[3-(4-Chloro-1H-pyrrolo[2,3-b]pyridine-3-carbonyl)-2,4-difluoro-phenyl]-2-fluoro-benzenesulfonamide]	< 10 nM	< 1000 nM	> 10000 nM
CCCS(=O)(=O)Nc1cccc(C(=O)c2c[nH]c3ncc(-c4cnc(N(C)C)nc4)cc23)c1F [P-2408, Propane-1-sulfonic acid {3-[5-(2-dimethylamino-pyrimidin-5-yl)-1H-pyrrolo[2,3-b]pyridine-3-carbonyl]-2-fluoro-phenyl}-amide]	< 10 nM	< 100 nM	> 10000 nM
C#Cc1cnc2[nH]cc(C(=O)c3c(F)ccc(NS(=O)(=O)CCC)c3F)c2c1 [P-2260, Propane-1-sulfonic acid [3-(5-ethynyl-1H-pyrrolo[2,3-b]pyridine-3-carbonyl)-2,4-difluoro-phenyl]-amide]	< 10 nM	< 1000 nM	5000 to 10000 nM
N#Cc1cnc2[nH]cc(C(=O)c3c(F)ccc(NS(=O)(=O)c4ccccc4)c3F)c2c1 [P-2046, N-[3-(5-Cyano-1H-pyrrolo[2,3-b]pyridine-3-carbonyl)-2,4-difluoro-phenyl]-benzenesulfonamide]	< 10 nM	< 1000 nM	> 10000 nM
O=C(c1c(F)ccc(NS(=O)(=O)c2cccc(F)c2)c1F)c1c[nH]c2nccc(Cl)c12 [P-2019, N-[3-(4-Chloro-1H-pyrrolo[2,3-b]pyridine-3-carbonyl)-2,4-difluoro-phenyl]-3-fluoro-benzenesulfonamide]	< 10 nM	< 5000 nM	> 10000 nM
N#Cc1cnc2[nH]cc(C(=O)c3cccc(NS(=O)(=O)c4ccccc4)c3F)c2c1 [P-2056, N-[3-(5-Cyano-1H-pyrrolo[2,3-b]pyridine-3-carbonyl)-2-fluoro-phenyl]-benzenesulfonamide]	< 10 nM	< 5000 nM	> 10000 nM
N#Cc1ccnc2[nH]cc(C(=O)c3c(F)ccc(NS(=O)(=O)c4c(F)cccc4F)c3F)c12 [P-2037, N-[3-(4-Cyano-1H-pyrrolo[2,3-b]pyridine-3-carbonyl)-2,4-difluoro-phenyl]-2,6-difluoro-benzenesulfonamide]	< 10 nM	< 5000 nM	> 10000 nM
CCCS(=O)(=O)Nc1ccc(F)c(C(=O)c2c[nH]c3ncc(-c4ccc(OCCN5CCOCC5)nc4)cc23)c1F [P-2232, Propane-1-sulfonic acid (2,4-difluoro-3-{5-[6-(2-morpholin-4-yl-ethoxy)-pyridin-3-yl]-1H-pyrrolo[2,3-b]pyridine-3-carbonyl}-phenyl)-amide]	< 10 nM	< 100 nM	> 10000 nM
CCCS(=O)(=O)Nc1ccc(F)c(C(=O)c2c[nH]c3ncc(-c4ccc(N5CCCC5)nc4)cc23)c1F [P-2231, Propane-1-sulfonic acid {2,4-difluoro-3-[5-(6-pyrrolidin-1-yl-pyridin-3-yl)-1H-pyrrolo[2,3-b]pyridine-3-carbonyl]-phenyl}-amide]	< 10 nM	< 100 nM	> 10000 nM
COc1cnc2[nH]cc(C(=O)c3c(F)ccc(NS(=O)(=O)c4cc(F)ccc4F)c3F)c2c1 [P-2010, N-[2,4-Difluoro-3-(5-methoxy-1H-pyrrolo[2,3-b]pyridine-3-carbonyl)-phenyl]-2,5-difluoro-benzenesulfonamide]	< 10 nM	< 1000 nM	> 10000 nM
N#Cc1ccnc2[nH]cc(C(=O)c3c(F)ccc(NS(=O)(=O)c4cccc(F)c4)c3F)c12 [P-2039, N-[3-(4-Cyano-1H-pyrrolo[2,3-b]pyridine-3-carbonyl)-2,4-difluoro-phenyl]-3-fluoro-benzenesulfonamide]	< 10 nM	< 5000 nM	> 10000 nM
Cc1cnc2[nH]cc(C(=O)c3c(F)ccc(NS(=O)(=O)c4cc(F)ccc4F)c3F)c2c1 [P-2015, N-[2,4-Difluoro-3-(5-methyl-1H-pyrrolo[2,3-b]pyridine-3-carbonyl)-phenyl]-2,5-difluoro-benzenesulfonamide]	< 10 nM	< 1000 nM	> 10000 nM
